# Test results: patent US12201626B2, “Bifunctional compositions for the treatment of cancer” (ARMACEUTICA, INC., priority 2018, dated 2025)
# Experiments:
# MDA-MB-231 cells [1] = experiment: Phosphatidylserine externalization, annexin V-FITC/PI flow cytometry; type: cell-based, human; details: 24 h
# Experimental: (§1) To determine whether cell death induced by PND was occurring through apoptosis or necrosis, MDA-MB-231 and HL-60 cells were stained with annexin V-FITC and PI and monitored via flow cytometry. Cells were seeded in 24-well plates at a density of 100,000 for adherent MDA-MB-231 and 200,000 HL-60 cells in 1 ml of culture media. After overnight incubation, cells were treated with PND, and incubated for an additional 24 h. For MDA-MB-231 cells, unattached cells were harvested in an ice-cold tube, while adhered cells were detached by using HyQtase (Thermo Fisher) and incubated for around 5 min at 37° C. Both unattached and detached cells harvested from each individual well were washed with ice-cold PBS and centrifuged at 260×g for 5 min. HL-60 were centrifuged directly after the incubation period as they grow in suspension. Cells were then stained with a mixture of annexin V-FITC and PI in 100 μl of binding buffer and incubated on ice in the dark for 15 minutes, following the manufacturer's instructions (Beckman Coulter). Lastly, the cells were resuspended by the addition of 400 μl of ice-cold binding buffer and analysed by flow cytometry (Cytomics FC500; Beckman Coulter). For this series of experiments, cells treated with PBS, as solvent control; treated with H2O2, as a positive control of cytotoxicity; and untreated were included and processed in parallel. For each sample, 10,000 events/cells were collected and analysed using CXP software (Beckman Coulter). Both the experimental samples and their controls were processed similarly and assessed in triplicate. The sum of both early and late stages of apoptosis was calculated to obtain the total percentage of apoptotic cells.
# HL-60 cells [2] = experiment: as above; type: cell-based, human; details: 24 h
# Experimental: as §1
# MDA-MB-231 cells [3] = experiment: Mitochondrial membrane potential, JC-1 flow cytometry; type: cell-based, human; details: 6 h; vs untreated and solvent treated cells
# Experimental: (§2) After treatment, the cells were harvested and stained with 2 μM of the fluorophore 5,5′,6,6′-tetrachloro-1,1′,3,3′-tetraethylbenzimidazolylcarbocyanine iodide (JC-1) following manufacturer's instructions (MitoProbe; Life Technologies, Grand Island, NY, USA). Cells with healthy polarized mitochondria favour JC-1 to form aggregates, which emit a red signal. […] Similar controls as above were concurrently analysed. Data acquisition and analysis were achieved by using CXP software (Beckman Coulter). Each data point was analysed in triplicate.
# HL-60 cells [4] = experiment: as above; type: cell-based, human; details: 6 h; vs untreated and solvent treated cells
# Experimental: as §2
# [5] = test system: MDA-MB-231 LM2-LUC4 metastatic breast cancer cells; experiment: Metastatic breast cancer tumours in mice, daily gavage; type: in vivo
# Experimental: Treatment began when tumors reached 150-300 mm^3 in size (i.e. Day 1).
# In the PND-treated group (n=6), all 6 mice were given 160 mg/kg from Day 1 to Day 9. PND-treated mice numbers 2, 4, and 5 received 160 mg/kg for the entire study, while PND-treated mice numbers 1, 3, and 6 had the largest tumors in the group on Day 9, and had their doses increased on Day 10 to 240 mg/kg, and again on Day 13 to 320 mg/kg. The control mice (n=6) were given placebo throughout the study. The size of each tumor was measured daily. The protocol's endpoint was when a tumor reached 1500 mm^3 in size, triggering the euthanization of the mouse. For the analysis, the level of significance was set at P<0.05.
# Calf Thymus DNA = experiment: Circular dichroism spectroscopy; type: binding; details: PND/DNA molar ratios 0.03-0.3; 30 min and 20 h
# Experimental: Circular dichroism (CD) spectra measurements were taken in a JASCO-1100 spectropolarimeter equipped with a Xenon lamp (JASCO, Easton, MD). CT DNA and buffers were purchased from Sigma Aldrich. A CT DNA stock solution was prepared in Tris/HCl buffer (5 mM Tris/HCl, 50 mM NaCl, pH=7.39) and its concentration (4.325 mM) was spectrophotometrically determined using molar extinction coefficient 6600 M−1 cm−1 at 260 nm. A 150 μM dilution in Tris/HCl buffer was prepared and used for the experiments. A 2.0 mM stock solution of PND was freshly prepared in MQ water prior to use. The appropriate volume of this solution was added to 3 ml working solutions of 150 μM CT DNA to achieve molar ratios of 0.03, 0.06, 0.2 and 0.3 PND/DNA. Samples were prepared in triplicate and incubated for 30 minutes and 20 hours. All CD spectra of DNA and DNA/PND were recorded at 25° C. over the range 205-380 nm and finally corrected with a blank and noise reduction. The final data is the average of three experiments and it is expressed in millidegrees (mdegs).
smiles,measurement,setting,value
"COC1=CC=C2Nc3cc(Cl)ccc3C(N=C3C=C(CN4CCCC4)C(=O)C(CN4CCCC4)=C3)=C2N1 [PND, 4-[(7-chloro-2-methoxy-1,5-dihydrobenzo[b][1,5]naphthyridin-10-yl)imino]-2,6-bis(pyrrolidin-1-ylmethyl)cyclohexa-2,5-dien-1-one]",annexin positive cells (PS externalization),MDA-MB-231 cells [1]; 11 μM,67.2%
same,annexin positive cells (PS externalization),MDA-MB-231 cells [1]; 22 μM,71.1%
same,apoptotic cells (PS externalization),HL-60 cells [2]; 34 μM,14.8%
same,apoptotic cells (PS externalization),HL-60 cells [2]; 68 μM,30.2%
same,"mitochondrial depolarization (Δψm, JC-1)",MDA-MB-231 cells [3],significant mitochondrial depolarization
same,"mitochondrial depolarization (Δψm, JC-1)",HL-60 cells [4],significant mitochondrial depolarization
same,average tumor size,"[5]; 160 mg/kg daily gavage, Day 1 to 9, control 750 mm^3, P 0.01",430 mm^3
same,"PND accumulation on dissection (stomach, intestines, liver)",[5]; 6 PND-treated mice dissected,no sign of PND accumulation
same,adverse events,[5]; 160-320 mg/kg daily gavage,no reports of negative adverse events except discomfort in walking after Day 15
same,length of survival versus placebo,[5]; 160-320 mg/kg daily gavage,significant difference in lengths of survival favoring the PND-treated group
same,"weight, eating, grooming",[5]; 160-320 mg/kg daily gavage,"no weight loss, no eating disorders, or grooming issues"
same,tumor size versus placebo,"[5]; Day 1 to 15, P 0.0001",tumors had grown larger in the placebo group than in the PND-treated group
same,pigmentation at about Day 20,[5]; all 6 PND-treated mice,"yellowing in the eyes, skin, ears, and paws"
same,change of CD spectra of CT DNA,Calf Thymus DNA,increase the intensity of both the negative and the positive bands
